Measurements published in PMC7872314, “Modeling Bioavailable Concentrations in Zebrafish Cell Lines and Embryos Increases the Correlation of Toxicity Potencies across Test Systems” (Environmental Science & Technology, 2020).
Like-named read-outs stand apart in the source and are kept apart here.

Experiments:
[1] = system: ZF4 (fibroblasts) cell line; test: MTS assay (MTS/BCA multiplex), NAD(P)H metabolism; format: cell-based, zebrafish (Danio rerio); conditions: Danio rerio, Fibroblast
[2] = system: ZFL (hepatocytes) cell line; test: cells; format: cell-based, zebrafish (Danio rerio); conditions: Danio rerio, Hepatocyte
[3] = system: ZF4 (fibroblasts) cell line; test: BCA assay (MTS/BCA multiplex), protein amount; format: cell-based, zebrafish (Danio rerio); conditions: Danio rerio, Fibroblast
[4] = system: ZFL (hepatocytes) cell line; test: cells; format: cell-based, zebrafish (Danio rerio); conditions: Danio rerio, Hepatocyte; remark: listed apart in the source
[5] = system: ZF4 (fibroblasts) cell line; test: ATP assay (ATP/LDH multiplex), ATP metabolism; format: cell-based, zebrafish (Danio rerio); conditions: Danio rerio, Fibroblast
[6] = system: ZFL (hepatocytes) cell line; test: cells; format: cell-based, zebrafish (Danio rerio); conditions: Danio rerio, Hepatocyte; remark: listed apart in the source
[7] = system: ZF4 (fibroblasts) cell line; test: alamarBlue (AB) endpoint of AB/CFDA/NR multiplex, cellular respiration; format: cell-based, zebrafish (Danio rerio); conditions: Danio rerio, Fibroblast
[8] = system: ZFL (hepatocytes) cell line; test: cells; format: cell-based, zebrafish (Danio rerio); conditions: Danio rerio, Hepatocyte; remark: listed apart in the source
[9] = system: ZF4 (fibroblasts) cell line; test: CFDA endpoint of AB/CFDA/NR multiplex, membrane stability; format: cell-based, zebrafish (Danio rerio); conditions: Danio rerio, Fibroblast
[10] = system: ZFL (hepatocytes) cell line; test: cells; format: cell-based, zebrafish (Danio rerio); conditions: Danio rerio, Hepatocyte; remark: listed apart in the source
[11] = system: ZF4 (fibroblasts) cell line; test: Neutral red, absorbance (NRa), AB/CFDA/NR multiplex, lysosome stability; format: cell-based, zebrafish (Danio rerio); conditions: Danio rerio, Fibroblast
[12] = system: ZFL (hepatocytes) cell line; test: cells; format: cell-based, zebrafish (Danio rerio); conditions: Danio rerio, Hepatocyte; remark: listed apart in the source
[13] = system: ZF4 (fibroblasts) cell line; test: Neutral red, fluorescence (NRf), AB/CFDA/NR multiplex, lysosome stability; format: cell-based, zebrafish (Danio rerio); conditions: Danio rerio, Fibroblast
[14] = system: ZFL (hepatocytes) cell line; test: cells; format: cell-based, zebrafish (Danio rerio); conditions: Danio rerio, Hepatocyte; remark: listed apart in the source
zebrafish embryos [15] = test: animal or person; format: in vivo, zebrafish (Danio rerio); conditions: for EC50: Danio rerio
ZF4 and ZFL cell lines = test: Cytotoxicity assays, all endpoints, both cell lines (mean/range); format: cell-based, zebrafish (Danio rerio); conditions: 48 h
zebrafish embryos [16] = system: zebrafish embryos; design: method as in earlier work; conditions: nominal, cited from earlier work
[17] = system: diverse mammalian cell assay results; design: method as in https://comptox.epa.gov/dashboard/; conditions: COMPTOX; ref https://comptox.epa.gov/dashboard/; read-out: median AC50; cited from earlier work
[18] = ref Comptox, PubChem or DrugBank; cited from earlier work

Work on `CCCSc1ccc2nc(NC(=O)OC)[nH]c2c1` [Albendazole, albendazole] yielded an IC50 ([1]; MTS - ZF4, log10 of IC50, read-out: LogIC50 (converted)) of 10.1 µM, an IC50 ([1]; MTS - ZF4, read-out: IC50) of 10.1 µM and an IC50 ([1]; ZF4, 48 h exposure, nominal, log10, read-out: logIC50 (log10 IC50;nom) MTS (converted)) of 10 µM. The IC50 ([1]; ZF4, 48 h exposure, nominal, read-out: IC50;nom MTS) was 10.1 µM, the IC50 ([2]; MTS - ZFL, log10 of IC50, read-out: LogIC50 (converted)) was 0.418 µM and the IC50 ([2]; MTS - ZFL, read-out: IC50) was 0.418 µM. The IC50 ([2]; ZFL, 48 h exposure, nominal, log10, read-out: logIC50 (log10 IC50;nom) MTS (converted)) was 0.417 µM, the IC50 ([2]; ZFL, 48 h exposure, nominal, read-out: IC50;nom MTS) was 0.418 µM and the IC50 ([3]; BCA - ZF4, log10 of IC50, read-out: LogIC50 (converted)) was 0.555 µM. It also gave an IC50 ([3]; BCA - ZF4, read-out: IC50) of 0.555 µM, an IC50 ([3]; ZF4, 48 h exposure, nominal, log10, read-out: logIC50 (log10 IC50;nom) BCA (converted)) of 0.55 µM and an IC50 ([3]; ZF4, 48 h exposure, nominal, read-out: IC50;nom BCA) of 0.555 µM. The IC50 ([4]; BCA - ZFL, log10 of IC50, read-out: LogIC50 (converted)) was 0.0309 µM, the IC50 ([4]; BCA - ZFL, read-out: IC50) was 0.0309 µM and the IC50 ([4]; ZFL, 48 h exposure, nominal, log10, read-out: logIC50 (log10 IC50;nom) BCA (converted)) was 0.0309 µM. The IC50 ([4]; ZFL, 48 h exposure, nominal, read-out: IC50;nom BCA) was 0.0309 µM, the IC50 ([5]; ATP - ZF4, log10 of IC50, read-out: LogIC50 (converted)) was 3.25 µM and the IC50 ([5]; ATP - ZF4, read-out: IC50) was 3.25 µM. It also gave an IC50 ([5]; ZF4, 48 h exposure, nominal, log10, read-out: logIC50 (log10 IC50;nom) ATP (converted)) of 3.24 µM, an IC50 ([5]; ZF4, 48 h exposure, nominal, read-out: IC50;nom ATP) of 3.25 µM and an IC50 ([6]; ATP - ZFL, log10 of IC50, read-out: LogIC50 (converted)) of 0.542 µM. The IC50 ([6]; ATP - ZFL, read-out: IC50) was 0.542 µM, the IC50 ([6]; ZFL, 48 h exposure, nominal, log10, read-out: logIC50 (log10 IC50;nom) ATP (converted)) was 0.537 µM and the IC50 ([6]; ZFL, 48 h exposure, nominal, read-out: IC50;nom ATP) was 0.542 µM. For the same molecule, the IC50 ([7]; AB - ZF4, log10 of IC50, read-out: LogIC50 (converted)) was 7.79 µM, the IC50 ([7]; AB - ZF4, read-out: IC50) was 7.79 µM and the IC50 ([7]; ZF4, 48 h exposure, nominal, log10, read-out: logIC50 (log10 IC50;nom) AB (converted)) was 7.76 µM. For the same molecule, the IC50 ([7]; ZF4, 48 h exposure, nominal, read-out: IC50;nom AB) was 7.79 µM, the IC50 ([8]; AB - ZFL, log10 of IC50, read-out: LogIC50 (converted)) was 3.72 µM and the IC50 ([8]; AB - ZFL, read-out: IC50) was 3.72 µM. For the same molecule, the IC50 ([8]; ZFL, 48 h exposure, nominal, log10, read-out: logIC50 (log10 IC50;nom) AB (converted)) was 3.72 µM, the IC50 ([8]; ZFL, 48 h exposure, nominal, read-out: IC50;nom AB) was 3.72 µM and the IC50 ([9]; CFDA - ZF4, log10 of IC50, read-out: LogIC50 (converted)) was 75.4 µM. For the same molecule, the IC50 ([9]; CFDA - ZF4, read-out: IC50) was 75.4 µM, the IC50 ([9]; ZF4, 48 h exposure, nominal, log10, read-out: logIC50 (log10 IC50;nom) CFDA (converted)) was 75.9 µM and the IC50 ([9]; ZF4, 48 h exposure, nominal, read-out: IC50;nom CFDA) was 75.4 µM. For the same molecule, the IC50 ([10]; CFDA - ZFL, log10 of IC50, read-out: LogIC50 (converted)) was 221 µM, the IC50 ([10]; CFDA - ZFL, read-out: IC50) was 221 µM and the IC50 ([10]; ZFL, 48 h exposure, nominal, log10, read-out: logIC50 (log10 IC50;nom) CFDA (converted)) was 219 µM. It also gave an IC50 ([10]; ZFL, 48 h exposure, nominal, read-out: IC50;nom CFDA) of 221 µM, an IC50 ([11]; NR-abs - ZF4, log10 of IC50, read-out: LogIC50 (converted)) of 2.36 µM and an IC50 ([11]; NR-abs - ZF4, read-out: IC50) of 2.36 µM. The IC50 ([11]; ZF4, 48 h exposure, nominal, log10, read-out: logIC50 (log10 IC50;nom) NRa (converted)) was 2.34 µM, the IC50 ([11]; ZF4, 48 h exposure, nominal, read-out: IC50;nom NRa) was 2.36 µM and the IC50 ([11]; ZF4 cell line, NRa endpoint, nominal, read-out: IC50;nom) was 0.63 µg/mL. For the same molecule, the IC50 ([12]; NR-abs - ZFL, log10 of IC50, read-out: LogIC50 (converted)) was 0.904 µM, the IC50 ([12]; NR-abs - ZFL, read-out: IC50) was 0.904 µM and the IC50 ([12]; ZFL, 48 h exposure, nominal, log10, read-out: logIC50 (log10 IC50;nom) NRa (converted)) was 0.912 µM. The IC50 ([12]; ZFL, 48 h exposure, nominal, read-out: IC50;nom NRa) was 0.904 µM, the IC50 ([13]; NR-fluo - ZF4, log10 of IC50, read-out: LogIC50 (converted)) was 3.61 µM and the IC50 ([13]; NR-fluo - ZF4, read-out: IC50) was 3.61 µM. For the same molecule, the IC50 ([13]; ZF4, 48 h exposure, nominal, log10, read-out: logIC50 (log10 IC50;nom) NRf (converted)) was 3.63 µM, the IC50 ([13]; ZF4, 48 h exposure, nominal, read-out: IC50;nom NRf) was 3.61 µM and the IC50 ([14]; NR-fluo - ZFL, log10 of IC50, read-out: LogIC50 (converted)) was 0.724 µM. For the same molecule, the IC50 ([14]; NR-fluo - ZFL, read-out: IC50) was 0.724 µM, the IC50 ([14]; ZFL, 48 h exposure, nominal, log10, read-out: logIC50 (log10 IC50;nom) NRf (converted)) was 0.724 µM and the IC50 ([14]; ZFL, 48 h exposure, nominal, read-out: IC50;nom NRf) was 0.724 µM. For the same molecule, the “difference in toxicity (EC50;nom) between 48 hpf and 144 hpf” value (zebrafish embryos [15]; 48 hpf time point less sensitive than 144 hpf) was “approximately the same”, the “log EC50;nom (mFET)” value (zebrafish embryos [15]; 48 hpf, nominal, log10, listed as Abz) was -6.783 M and the EC50 (zebrafish embryos [15]; 48 hpf, nominal, log10, read-out: log EC50;nom (mFET) (converted)) was 0.166 µM. The EC50 (zebrafish embryos [15]; 48 hpf, nominal, read-out: EC50;nom (embryo)) was 0.05 µg/mL, the EC50 (zebrafish embryos [15]; read-out: EC50 48hpf) was 0.165 µM and the EC50 (zebrafish embryos [15]; read-out: EC50;nom (mFET)) was 0.165 µM. The IC50 (ZF4 and ZFL cell lines; Danio rerio, read-out: Mean log IC50nom, mean of all cytotoxicity endpoints (without LDH) in ZF4 and ZFL, 48 h, log10 (converted)) was 2.51 µM, the “Mean log IC50nom” value (ZF4 and ZFL cell lines; mean of all cytotoxicity endpoints (without LDH) in ZF4 and ZFL, log10, listed as Abz) was -5.604 M and the EC50 (zebrafish embryos [16]; 144 hpf, converted) was 0.158 µM. For the same molecule, the “logEC50 144 hpf” value (zebrafish embryos [16]; log10) was -6.8 M, the AC50 [17] was 0.41 µM and the BCF [18] was 41.2. The Physiological charge [18] was 0, the logKoa [18] was 9.35 and the logKow [18] was 3.07. For the same molecule, the “pKa (Strongest Acidic)” value [18] was 9.51, the “pKa (Strongest Basic)” value [18] was 4.27 and the “w_solubility (water solubility)” value [18] was 85.2 µM.
